Values of other authors, collected in US20150224078A1, “Methods for the Treatment of Lung Diseases with Mast Cell Stabilizers” (Patara Pharma, LLC, priority 2014, published 2015).

Details: Richards et al, 1987

O=C(O)c1cc(=O)c2c(OCC(O)COc3cccc4oc(C(=O)O)cc(=O)c34)cccc2o1 [cromolyn sodium]
oral bioavailability: about 1%
